Measurements reported in patent US4292319A, “Antiphlogistic pharmaceutical compositions and method of use” (Boehringer Ingelheim GmbH, priority 1977, dated 1981).

System: gastro-intestinal side-effects caused by non-steroidal antiphlogistics
Assay: Clinical tests of suppression of gastro-intestinal side-effects by pirenzepine
Assay type: in vivo

CN1CCN(CC(=O)N2c3ccccc3C(=O)Nc3cccnc32)CC1 [pirenzepine, 5,11-dihydro-11-[(4-methyl-1-piperazinyl)-acetyl]-6H-pyrido[2,3-b] [1,4] benzodiazepin-6-one]
incompatibilities between pirenzepine and non-steroidal antiphlogistics (combined administration): not observed any incompatibilities | mucous membrane protection by single therapeutic doses at 12-hour intervals (single therapeutic doses at 12-hour intervals): sufficient to assure round-the-clock mucous membrane protection
